The numbers were not newly measured in PubChem BioAssay AID1259409 (Chemical Carcinogenesis Research Information System (CCRIS), 2018), which cites them from elsewhere.

For this data set, the system named is rodent chemically induced tumor inhibition, incidence and multiplicity. In words: CCRIS tumor inhibitor studies.

For `CC(=O)N[C@@H](CS)C(=O)O`, the “tumour outcome (control, treated, inhibition, significance)” value runs as follows: (Carcinogen: 4-(METHYLNITROSAMINO)-1-(3-PYRIDYL)-1-BUTANONE [64091-50-5], Dose [Inhibitor]: 80 MMOL/KG IN DIET FOR 17 WK BEGINNING 1 WK PRIOR TO FIRST CARCINOGEN DOSE (STUDY DURATION: 17 WK), Route [Inhibitor]: ORAL, Species: MOUSE, Strain/Sex: A/J/FEMALE, Target Tissue: Type of Lesion: LUNG: ADENOMA, Dose [Carcinogen]: 10 UMOL ONCE 1 WK POST FIRST INHIBITOR DOSE (STUDY DURATION: 17 WK), Promoter: NONE) 100%, 100%, 0%, not significant; (Carcinogen: 4-(METHYLNITROSAMINO)-1-(3-PYRIDYL)-1-BUTANONE [64091-50-5], Dose [Inhibitor]: 80 MMOL/KG IN DIET FOR 53 WK BEGINNING 1 WK PRIOR TO FIRST CARCINOGEN DOSE (STUDY DURATION: 53 WK), Route [Inhibitor]: ORAL, Species: MOUSE, Strain/Sex: A/J/FEMALE, Target Tissue: Type of Lesion: LUNG: ADENOMA OR ADENOCARCINOMA, Dose [Carcinogen]: 10 UMOL ONCE 1 WK POST FIRST INHIBITOR DOSE (STUDY DURATION: 53 WK), Promoter: NONE) 100%, 93%, 7%, not significant; (Carcinogen: 4-(METHYLNITROSAMINO)-1-(3-PYRIDYL)-1-BUTANONE [64091-50-5], Dose [Inhibitor]: 160 MMOL/KG IN DIET FOR 17 WK BEGINNING 1 WK PRIOR TO FIRST CARCINOGEN DOSE (STUDY DURATION: 17 WK), Route [Inhibitor]: ORAL, Species: MOUSE, Strain/Sex: A/J/FEMALE, Target Tissue: Type of Lesion: LUNG: ADENOMA, Dose [Carcinogen]: 10 UMOL ONCE 1 WK POST FIRST INHIBITOR DOSE (STUDY DURATION: 17 WK), Promoter: NONE) 100%, 100%, 0%, not significant; (Carcinogen: 4-(METHYLNITROSAMINO)-1-(3-PYRIDYL)-1-BUTANONE [64091-50-5], Dose [Inhibitor]: 160 MMOL/KG IN DIET FOR 53 WK BEGINNING 1 WK PRIOR TO FIRST CARCINOGEN DOSE (STUDY DURATION: 53 WK), Route [Inhibitor]: ORAL, Species: MOUSE, Strain/Sex: A/J/FEMALE, Target Tissue: Type of Lesion: LUNG: ADENOMA OR ADENOCARCINOMA, Dose [Carcinogen]: 10 UMOL ONCE 1 WK POST FIRST INHIBITOR DOSE (STUDY DURATION: 53 WK), Promoter: NONE) 100%, 97%, 3%, not significant; (Carcinogen: 4-(METHYLNITROSAMINO)-1-(3-PYRIDYL)-1-BUTANONE, 64091-91-4, Dose [Inhibitor]: 0, 6528 PPM IN DIET FOR 22 WK BEGINNING 1 WK PRIOR TO CARCINOGEN TREATMENT (STUDY DURATION: 98 WK), Route [Inhibitor]: ORAL, Species: RAT, Strain/Sex: F344/MALE, Target Tissue: Type of Lesion: LUNG: TUMOR, Dose [Carcinogen]: 1.5 MG/KG BW 3/WK FOR 20 WK, Promoter: NONE USED) 22/33 (67%), 22/36 (61%), 9%, not significant; (Carcinogen: 4-(METHYLNITROSAMINO)-1-(3-PYRIDYL)-1-BUTANONE, 64091-91-4, Dose [Inhibitor]: 0, 6528 PPM IN DIET FOR 22 WK BEGINNING 1 WK PRIOR TO CARCINOGEN TREATMENT (STUDY DURATION: 98 WK), Route [Inhibitor]: ORAL, Species: RAT, Strain/Sex: F344/MALE, Target Tissue: Type of Lesion: NASAL CAVITY: TUMOR, Dose [Carcinogen]: 1.5 MG/KG BW 3/WK FOR 20 WK, Promoter: NONE USED) 28/36 (78%), 22/36 (61%), 22%, not significant. In addition, the “tumour outcome (control, treated, inhibition, significance)” value is recorded as 28/36 (78%), 17/36 (47%), 40%, not significant (Carcinogen: 4-(METHYLNITROSAMINO)-1-(3-PYRIDYL)-1-BUTANONE, 64091-91-4, Dose [Inhibitor]: 0, 13056 PPM IN DIET FOR 22 WK BEGINNING 1 WK PRIOR TO CARCINOGEN DOSE (STUDY DURATION: 98 WK), Route [Inhibitor]: ORAL, Species: RAT, Strain/Sex: F344/MALE, Target Tissue: Type of Lesion: NASAL CAVITY: TUMOR, Dose [Carcinogen]: 1.5 MG/KG BW 3/WK FOR 20 WK, Promoter: NONE USED); 22/33 (67%), 21/36 (58%), 13%, not significant (Carcinogen: 4-(METHYLNITROSAMINO)-1-(3-PYRIDYL)-1-BUTANONE, 64091-91-4, Dose [Inhibitor]: 0, 13056 PPM IN DIET FOR 22 WK BEGINNING 1 WK PRIOR TO CARCINOGEN TREATMENT (STUDY DURATION: 98 WK), Route [Inhibitor]: ORAL, Species: RAT, Strain/Sex: F344/MALE, Target Tissue: Type of Lesion: LUNG: TUMOR, Dose [Carcinogen]: 1.5 MG/KG BW 3/WK FOR 20 WK, Promoter: NONE USED); 92%, 88%, 4%, not significant (Carcinogen: 7,12-DIMETHYLBENZ[A]ANTHRACENE, 57-97-6, Dose [Inhibitor]: 0, 4000 PPM IN DIET FOR DURATION OF STUDY BEGINNING 1 WK PRIOR TO CARCINOGEN DOSE (STUDY DURATION: 107 D), Route [Inhibitor]: ORAL, Species: RAT, Strain/Sex: SPRAGUE-DAWLEY/FEMALE, Target Tissue: Type of Lesion: MAMMARY GLAND: ADENOCARCINOMA, Dose [Carcinogen]: 12 MG ONCE, Promoter: NONE USED); 92%, 92%, 0%, not significant (Carcinogen: 7,12-DIMETHYLBENZ[A]ANTHRACENE, 57-97-6, Dose [Inhibitor]: 0, 8000 PPM IN DIET FOR DURATION OF STUDY BEGINNING 1 WK PRIOR TO CARCINOGEN DOSE (STUDY DURATION: 107 D), Route [Inhibitor]: ORAL, Species: RAT, Strain/Sex: SPRAGUE-DAWLEY/FEMALE, Target Tissue: Type of Lesion: MAMMARY GLAND: ADENOCARCINOMA, Dose [Carcinogen]: 12 MG ONCE, Promoter: NONE USED); 34%, 22%, 35%, not significant (Carcinogen: AZOXYMETHANE, 25843-45-2, Dose [Inhibitor]: 0, 600 PPM IN DIET BEGINNING 2 WK PRIOR TO CARCINOGEN TREATMENT AND CONTINUING FOR DURATION OF STUDY (STUDY DURATION: 56, Route [Inhibitor]: ORAL, Species: RAT, Strain/Sex: F344/MALE, Target Tissue: Type of Lesion: COLON: INVASIVE ADENOCARCINOMA, Dose [Carcinogen]: 15 MG/KG 1/WK FOR 2 WK, Promoter: NONE USED); 53%, 44%, 17%, not significant (Carcinogen: AZOXYMETHANE, 25843-45-2, Dose [Inhibitor]: 0, 600 PPM IN DIET BEGINNING 2 WK PRIOR TO CARCINOGEN TREATMENT AND CONTINUING FOR DURATION OF STUDY (STUDY DURATION: 56, Route [Inhibitor]: ORAL, Species: RAT, Strain/Sex: F344/MALE, Target Tissue: Type of Lesion: COLON: NONINVASIVE ADENOCARCINOMA, Dose [Carcinogen]: 15 MG/KG 1/WK FOR 2 WK, Promoter: NONE USED). In addition, the “tumour outcome (control, treated, inhibition, significance)” value by setting is: (Carcinogen: AZOXYMETHANE, 25843-45-2, Dose [Inhibitor]: 0, 1200 PPM IN DIET BEGINNING 2 WK PRIOR TO CARCINOGEN TREATMENT AND CONTINUING FOR DURATION OF STUDY (STUDY DURATION: 5, Route [Inhibitor]: ORAL, Species: RAT, Strain/Sex: F344/MALE, Target Tissue: Type of Lesion: COLON: INVASIVE ADENOCARCINOMA, Dose [Carcinogen]: 15 MG/KG 1/WK FOR 2 WK, Promoter: NONE USED) 34%, 19%, 44%, not significant; (Carcinogen: AZOXYMETHANE, 25843-45-2, Dose [Inhibitor]: 0, 1200 PPM IN DIET BEGINNING 2 WK PRIOR TO CARCINOGEN TREATMENT AND CONTINUING FOR DURATION OF STUDY (STUDY DURATION: 5, Route [Inhibitor]: ORAL, Species: RAT, Strain/Sex: F344/MALE, Target Tissue: Type of Lesion: COLON: NONINVASIVE ADENOCARCINOMA, Dose [Carcinogen]: 15 MG/KG 1/WK FOR 2 WK, Promoter: NONE USED) 53%, 42%, 21%, not significant; (Carcinogen: DIETHYLNITROSAMINE, 55-18-5, Dose [Inhibitor]: 0, 30 MG/KG BW BY INTRAPERITONEAL INJECTION ON DAYS 13, 14 AND 15 OF AGE THEN 2 G/KG DIET FROM 21 TO 161 DAYS OF AGE (ST, Route [Inhibitor]: INTRAPERITONEAL, ORAL, Species: MOUSE, Strain/Sex: C3H/MALE, Target Tissue: Type of Lesion: LIVER: ADENOMA, Dose [Carcinogen]: 4 MG/KG IN TRICAPRYLIN ONCE ON DAY 15 OF AGE, Promoter: NONE USED) 100%, 100%, 0%, not significant.
